Measurements from ChEMBL document CHEMBL4152332, “Discovery and synthesis of novel magnolol derivatives with potent anticancer activity in non-small cell lung cancer” (Eur J Med Chem, 2018).

Experiments:
Mus musculus = experiment: Toxicity in Balb/c mouse xenografted with human NCI-H1975 cells assessed as change in body weight at 20 mg/kg, iv treated every 2 days for 9 days and measured every 2 days after compound dosing ( Rvb = 2.89%); assay type: organism-based; conditions: in vivo
NCI-H1975 = experiment: Induction of apoptosis in human NCI-H1975 cells assessed as decrease in Cdk2 level after 24 hrs by Western blot analysis; assay type: functional, cell-based

For `C=CCc1ccc(O)c(-c2cc(CC=C)cc(CN3CCC(N)CC3)c2O)c1`, the Activity (Mus musculus) was 8.23% and the Activity (NCI-H1975) was “Dose-dependent effect”.
